In general, EC50 refers to the concentration that produces a half-maximal response. A word on the IC50: it is the concentration that inhibits the measured activity by half.

The structures appear in SMILES notation. Like-named read-outs stand apart in the source and are kept apart here.

In data set [1] the target is T1, Cqui\Orco + Cqui\Or10 (Culex quinquefasciatus, UniProt D5LMR7+Q309I4). The arrangement: method as in PMID 20623327. The settings on record: read-out: EC50 for activation of Cqui\Orco+Cqui\Or10 by 3-methylindole; cited from earlier work.
The target in data set [2] is T1, Cqui\Orco + Cqui\Or10. Nature of the data set: Activation of Cqui\Orco + Cqui\Or10 in Xenopus oocytes, two-electrode voltage clamp. It is filed as cell-based. The settings on record: for Emax at 100 µM: 100 µM compound, mean ± SEM, n=3-8, read-out: Response amplitude as percentage of response to 100 µM OLC3, Cqui\Orco + Cqui\Or10. As for the experimental part:
(§1) Oocytes were surgically removed from mature Xenopus laevis frogs. Follicle cells were removed by treatment with Collagenase B (Boehringer Mannhem) for 2 hours at room temperature. Capped cRNA encoding each DmOR subunit was generated using mMessage mMachine kits (Ambion). For heteromeric ORs, 25 ng of cRNA encoding each OR subunit was injected into Stage V-VI Xenopus oocytes. For expression of Orco alone, 50 ng of cRNA was injected. Oocytes were incubated at 18°C in Barth’s saline (in mM: 88 NaCl, 1 KCl, 2.4 NaHCO3, 0.3 CaNO3, 0.41 CaCl2, 0.82 MgSO4, 15 HEPES, pH 7.6, and 150 µg/ml ceftazidime) for 2–5 days prior to electrophysiological recording.
(§2) Odorant and Orco ligand induced currents were recorded under two-electrode voltage clamp in Xenopus laevis oocytes expressing ORs, using an automated parallel electrophysiology system (OpusExpress 6000A; Molecular Devices). Oocytes were perfused with ND96 (in mM: 96 NaCl, 2 KCl, 1 CaCl2, 1 MgCl2, 5 HEPES, pH 7.5). Odorant stock solutions (0.5 or 1 M) and Orco ligand stock solutions (100 mM) were prepared in DMSO and diluted in ND96. Unless otherwise noted, applications were for 60 sec at a flow rate of 1.0 ml/min, with extensive washing in ND96 (9 or 20 min at 4.6 ml/min) between applications. Micropipettes were filled with 3 M KCl and had resistances of 0.2−2.0 MΩ. The holding potential was −70 mV. Current responses, filtered (4-pole, Bessel, low pass) at 20 Hz (−3 db) and sampled at 100 Hz, were captured and stored using OpusXpress 1.1 software (Molecular Devices).
(§3) Initial analysis of electrophysiological data was done using Clampfit 9.1 software (Molecular Devices). Curve fitting and statistical analyses were done using Prism 5 (Graphpad). Concentration-response data were fit to the equation: I = Imax/(1+(EC50/X)^n) where I represents the current response at a given concentration of odorant, X; Imax is the maximal response; EC50 is the concentration of agonist yielding a half maximal response; n is the apparent Hill coefficient. Concentration-inhibition data were fit to the equation: I = Imax/(1+(X/IC50)^n) where I represents the current response at a given concentration of inhibitor, X; Imax is the maximal response in the absence of inhibitor; IC50 is the concentration of inhibitor present that still allows a half maximal response from odorant; n is the apparent Hill coefficient. Statistical significance was assessed using a two-tailed unpaired t test, an F test, or a one-way analysis of variance followed by the Bonferroni’s post-test, as appropriate.
For orientation: Two-electrode voltage clamp is typically applied to oocytes expressing channels or transporters.

For data set [3], the target named is T2, Dmel\Orco + Dmel\Or35a (Drosophila melanogaster, UniProt Q9VNB5).
T2 construct: expressed in transfected cells; host or cells: Xenopus laevis oocytes (cRNA injection, pGEMHE)
T2 sequence (Q9VNB5 1-486): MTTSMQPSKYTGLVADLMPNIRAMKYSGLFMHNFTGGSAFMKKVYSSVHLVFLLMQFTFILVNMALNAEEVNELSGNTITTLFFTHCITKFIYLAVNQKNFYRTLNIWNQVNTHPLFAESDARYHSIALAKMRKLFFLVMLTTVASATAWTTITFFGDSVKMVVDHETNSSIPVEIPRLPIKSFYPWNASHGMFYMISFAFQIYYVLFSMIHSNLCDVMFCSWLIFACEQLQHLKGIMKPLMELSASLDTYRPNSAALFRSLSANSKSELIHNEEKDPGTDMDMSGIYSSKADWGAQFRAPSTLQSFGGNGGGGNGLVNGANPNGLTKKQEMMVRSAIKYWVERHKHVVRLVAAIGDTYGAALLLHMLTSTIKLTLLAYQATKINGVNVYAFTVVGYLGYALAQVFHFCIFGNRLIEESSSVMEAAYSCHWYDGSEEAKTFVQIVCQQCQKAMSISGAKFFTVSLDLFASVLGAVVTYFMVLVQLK
T2 sequence (Q9V3Q2 1-409 partner): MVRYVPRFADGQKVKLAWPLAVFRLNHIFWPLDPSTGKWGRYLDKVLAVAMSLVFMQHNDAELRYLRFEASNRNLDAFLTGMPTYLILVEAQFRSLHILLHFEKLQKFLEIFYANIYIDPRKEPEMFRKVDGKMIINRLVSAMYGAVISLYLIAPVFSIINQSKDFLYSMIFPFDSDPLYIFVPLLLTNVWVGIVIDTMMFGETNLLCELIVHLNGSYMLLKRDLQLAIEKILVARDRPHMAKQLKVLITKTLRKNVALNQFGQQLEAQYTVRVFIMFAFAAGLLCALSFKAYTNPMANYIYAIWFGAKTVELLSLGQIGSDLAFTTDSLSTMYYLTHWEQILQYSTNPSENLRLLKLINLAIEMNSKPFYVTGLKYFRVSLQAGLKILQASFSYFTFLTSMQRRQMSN
Briefly: Agonist activation of Dmel\Orco + Dmel\Or35a in Xenopus oocytes, two-electrode voltage clamp. It is filed as cell-based. The note with it: for EC50: concentration-response, responses normalized to 30 µM OLC3; for Emax at 100 µM: read-out: Response amplitude as percentage of response to 100 µM OLC3, Dmel\Orco + Dmel\Or35a. As to the method:
as §1, §2, §3

Data set [4] addresses T3, Dmel\Orco (Drosophila melanogaster, UniProt Q9VNB5).
T3 construct: expressed in transfected cells; host or cells: Xenopus laevis oocytes (cRNA injection, pGEMHE)
T3 sequence (Q9VNB5 1-486): T2 sequence (Q9VNB5 1-486)
Briefly: Agonist activation of homomeric Dmel\Orco in Xenopus oocytes, two-electrode voltage clamp. The format is cell-based. The note with it: for EC50: concentration-response, responses normalized to 30 µM OLC3, saturation not obtained for OLC3 and VUAA1; for Emax at 100 µM: read-out: Response amplitude as percentage of response to 100 µM OLC3, Dmel\Orco. As for the experimental part:
as §1, §2, §3

Data set [5] in a line: Solubility in recording solution (observation). The settings on record: aqueous recording solution, higher concentrations (OLC2: above 100 µM). The format is physicochemical. As for the experimental part: as §2
For data set [6], the system named is sham (water) injected oocytes. Nature of the data set: Response of sham (water) injected oocytes to Orco ligands. It is filed as cell-based, Xenopus laevis. The note with it: 100 µM, 60 sec application. As to the method: as §1, §2
Another data set relates to Cqui\Orco. Nature of the data set: Agonist activation of homomeric Cqui\Orco in Xenopus oocytes, two-electrode voltage clamp. It is filed as cell-based, Culex quinquefasciatus. The note with it: 100 µM compound; mean ± SEM, n=3-8.
Another data set concerns Onub\Orco + Onub\Or1. Briefly: Agonist activation of Onub\Orco + Onub\Or1 in Xenopus oocytes, two-electrode voltage clamp. The format is cell-based, Ostrinia nubilalis. The note with it: 100 µM compound; mean ± SEM, n=3-8.
Data set [7] addresses T3, Dmel\Orco. Briefly: Inhibition of OLC12 activation of Dmel\Orco in Xenopus oocytes. It is filed as cell-based. The note with it: activated by 30 µM OLC12 (EC39). As for the experimental part: as §1, §2
(§4) In inhibition assays, oocytes were exposed to 60 sec applications of OLC12 with 9 min washes between applications (Fig. 3 and 4) or 60 sec applications of odorant with 20 min washes between applications (Fig. 5). Oocytes were then exposed to a 90 sec application of antagonist candidate, immediately followed by a 60 sec co-application of antagonist candidate and OLC12 or odorant. Oocytes were then exposed to a final 60 sec application of OLC12 or odorant. The current response in the presence of antagonist candidate was compared to the preceding response(s) to OLC12 (or odorant) alone.
as §3

Data set [8] deals with T2, Dmel\Orco + Dmel\Or35a. Nature of the data set: Inhibition of OLC12 activation of Dmel\Orco + Dmel\Or35a in Xenopus oocytes. The format is cell-based. The settings on record: activated by 10 µM OLC12 (EC25); read-out: IC50, Dmel\Orco + Dmel\Or35a (activated by 10 µM OLC12). As to the method: as §1, §2, §4, §3
Data set [9] has as its target T2, Dmel\Orco + Dmel\Or35a. Briefly: Inhibition of odorant (hexanol) activation of Dmel\Orco + Dmel\Or35a in Xenopus oocytes. The format is cell-based. The note with it: 3 µM hexanol; OLC2 100 µM, OLC15 50 µM, OLC20 200 µM. As to the method: as §1, §2
In inhibition assays, oocytes were exposed to 60 sec applications of OLC12 with 9 min washes between applications (Fig. 3 and 4) or 60 sec applications of odorant with 20 min washes between applications (Fig. 5). […]
Initial analysis of electrophysiological data was done using Clampfit 9.1 software (Molecular Devices). […] Statistical significance was assessed using a two-tailed unpaired t test, an F test, or a one-way analysis of variance followed by the Bonferroni’s post-test, as appropriate.

T1 sequence (D5LMR7 entry or part of it): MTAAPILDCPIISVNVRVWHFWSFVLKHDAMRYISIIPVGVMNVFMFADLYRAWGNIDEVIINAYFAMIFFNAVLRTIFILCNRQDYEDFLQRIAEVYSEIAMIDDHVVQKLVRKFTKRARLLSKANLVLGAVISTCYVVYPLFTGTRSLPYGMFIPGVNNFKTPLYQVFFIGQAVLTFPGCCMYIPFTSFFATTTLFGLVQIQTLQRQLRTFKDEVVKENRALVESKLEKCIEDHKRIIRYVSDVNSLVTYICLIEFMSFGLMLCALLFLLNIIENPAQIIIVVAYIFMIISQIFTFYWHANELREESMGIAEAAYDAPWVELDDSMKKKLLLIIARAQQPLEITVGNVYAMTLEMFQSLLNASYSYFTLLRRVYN
T1 sequence (Q309I4 entry or part of it): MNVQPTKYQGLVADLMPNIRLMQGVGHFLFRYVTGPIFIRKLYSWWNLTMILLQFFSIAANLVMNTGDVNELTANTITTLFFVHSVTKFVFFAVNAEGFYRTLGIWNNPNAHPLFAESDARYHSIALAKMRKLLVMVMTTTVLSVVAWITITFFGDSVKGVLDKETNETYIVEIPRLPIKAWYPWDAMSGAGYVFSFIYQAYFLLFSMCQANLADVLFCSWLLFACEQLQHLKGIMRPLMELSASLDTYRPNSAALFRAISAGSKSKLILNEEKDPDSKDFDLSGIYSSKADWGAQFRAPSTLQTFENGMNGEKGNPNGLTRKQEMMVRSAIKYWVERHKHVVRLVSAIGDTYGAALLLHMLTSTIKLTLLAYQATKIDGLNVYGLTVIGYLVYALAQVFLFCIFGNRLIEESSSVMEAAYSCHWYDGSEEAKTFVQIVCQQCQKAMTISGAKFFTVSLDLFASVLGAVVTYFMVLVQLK

On to `Cc1c[nH]c2ccccc12` [3-methylindole, reference compound], for which the half-maximal effective concentration (EC50) is 0.09 ± 0.017 µM at Cqui\Orco + Cqui\Or10 [1]; 0.313 ± 0.103 µM at Cqui\Orco + Cqui\Or10 [2] (absence of OLC15, read-out: EC50 for 3-MI activation of Cqui\Orco + Cqui\Or10); 0.275 ± 0.041 µM at Cqui\Orco + Cqui\Or10 [2] (in presence of 3 µM OLC15, read-out: EC50 for 3-MI activation of Cqui\Orco + Cqui\Or10 in presence of OLC15).
As for `CCc1ccc(NC(=O)CSc2nnc(-c3ccncc3)n2CC)cc1` [OLC3], the concentration for a half-maximal effect (EC50) at Dmel\Orco + Dmel\Or35a [3] came out at 56 ± 8 µM; at Dmel\Orco [4] it was 346 ± 126 µM. Besides, the Emax at 100 µM on Dmel\Orco + Dmel\Or35a [3], on Dmel\Orco [4] and on Cqui\Orco + Cqui\Or10 [2] was 100% each time. Further, the Solubility result in data set [5] was “not fully soluble at higher concentrations”. For the same molecule, the “Response of sham (water) injected oocytes” value (from here on “Response of sham”) in data set [6] is on record as “No responses”. For the same molecule, the “Response amplitude as percentage of response to 100 µM OLC3, Cqui\Orco” value (shortened to “Response amplitude as percentage … Cqui\Orco”) in the data set with Cqui\Orco amounted to 100%. The “Response amplitude as percentage of response to 100 µM OLC3, Onub\Orco + Onub\Or1” value in the data set on Onub\Orco + Onub\Or1 turned out to be 100%.
Regarding `CCCCc1ccc(NC(=O)CSc2nnc(-c3cccnc3)n2CC)cc1` [OLC9], the results for the half-inhibitory concentration (IC50) on Dmel\Orco [7] and on Dmel\Orco + Dmel\Or35a [8] were 69 ± 7 µM and 40 ± 9 µM, respectively. For the same molecule, the figures for the Emax at 100 µM at Dmel\Orco + Dmel\Or35a [3], on Dmel\Orco [4] and on Cqui\Orco + Cqui\Or10 [2] were 5 ± 2%, 0% and 0%, respectively. For the same molecule, the “Response amplitude as percentage … Cqui\Orco” value in the data set on Cqui\Orco came to 0%. For the same molecule, in the data set with Onub\Orco + Onub\Or1, the “Response amplitude as percentage of response to 100 µM OLC3, Onub\Orco + Onub\Or1” value came out at 3 ± 1%.
Turning to `CCn1c(SCC(=O)Nc2ccc(C(C)C)cc2)nnc1-c1ccncc1` [OLC12], the EC50 at Dmel\Orco + Dmel\Or35a [3] came to 18 ± 3 µM; at Dmel\Orco [4], 35 ± 3 µM. Further, the Emax at 100 µM came to 300 ± 41% on Dmel\Orco + Dmel\Or35a [3], 318 ± 12% at Dmel\Orco [4] and 289 ± 41% at Cqui\Orco + Cqui\Or10 [2]. The “Response of sham” value in data set [6] is “No responses”. In addition, the “Response amplitude as percentage … Cqui\Orco” value in the data set with Cqui\Orco is 636 ± 78%. Further, the “Response amplitude as percentage of response to 100 µM OLC3, Onub\Orco + Onub\Or1” value with Onub\Orco + Onub\Or1 stood at 306 ± 33%.
Turning to `CCc1ccc(NC(=O)c2cccs2)cc1` [OLC20], the IC50 turned out to be 57 ± 19 µM on Dmel\Orco [7] and 55 ± 15 µM on Dmel\Orco + Dmel\Or35a [8]. Also, the Emax at 100 µM came out at 0% at Dmel\Orco + Dmel\Or35a [3], 0% at Dmel\Orco [4] and 11 ± 4% at Cqui\Orco + Cqui\Or10 [2]. Further, the “Response amplitude as percentage … Cqui\Orco” value with Cqui\Orco worked out at 0%. Further, the “Inhibition of the hexanol response of Dmel\Orco+Dmel\Or35a” value at Dmel\Orco + Dmel\Or35a [9] was “substantial inhibition”.
Consider `CCCCc1ccc(NC(=O)c2cccs2)cc1` [OLC22], for which the IC50 turned out to be 52 ± 18 µM against Dmel\Orco [7] and 26 ± 4 µM on Dmel\Orco + Dmel\Or35a [8]. In addition, the Emax at 100 µM at Dmel\Orco + Dmel\Or35a [3], at Dmel\Orco [4] and on Cqui\Orco + Cqui\Or10 [2] was 0% throughout. In the data set on Cqui\Orco, the “Response amplitude as percentage … Cqui\Orco” value was determined as 0%.
In the case of `CCc1ccc(NC(=O)CSc2nnc(-c3cccnc3)n2CC)cc1` [VUAA1, reference compound], the EC50 at Dmel\Orco + Dmel\Or35a [3] was 57 ± 13 µM; at Dmel\Orco [4], 190 ± 30 µM. Besides, the Emax at 100 µM on Dmel\Orco + Dmel\Or35a [3] was found to be 50 ± 9%; at Dmel\Orco [4], 24 ± 7%; at Cqui\Orco + Cqui\Or10 [2], 75 ± 3%. Further, the Solubility entry in data set [5] is “not fully soluble at higher concentrations”. Also, the “Response of sham” value in [6] was “No responses”. Also, the “Response amplitude as percentage … Cqui\Orco” value with Cqui\Orco came to 18 ± 8%. The “Response amplitude as percentage of response to 100 µM OLC3, Onub\Orco + Onub\Or1” value with Onub\Orco + Onub\Or1 worked out at 60 ± 6%.
